The experiment has as its system Jurkat cell line (leukemia cell line). Description: Toxicity / cell growth of Jurkat cell line. It is filed as cell-based. The following applies: Homo sapiens. Here is the method:
The ability of PFK-158 to kill or inhibit the proliferation of cancer cells was measured using either the MTT assay, the alamarBlue® assay (Invitrogen, Grand Island, N.Y.), or the CellTiter Glo™ assay (Promega, Madison, Wis.) using 48 or 72 hours exposure.
Cells of the desired tumor cell line were plated at 2×10^5 cells/ml in 96 well plates. Twice the indicated concentrations of the compounds of the invention were added to cells the following day in an equal volume of media. 72 hours later, cells were lysed and subjected to ATP determination using the CellTiter-Glo™ Luminescent Cell Viability Assay kit. Experiments were performed in triplicate. When using the MTT assay or the alamarBlue® assay, the experimental conditions are essentially similar; at the end of the incubation period, 20 microliters of the MTT solution is added per well and the samples are incubated for an additional four hours, rinsed, and absorbance at 570 nm was measured. Results for the inhibition of cell proliferation are reported as the IC50 (the concentration resulting in 50% inhibition of proliferation of the cell population) and are listed in Table 5 below. Cell lines include lung, colon, prostate, breast, ovarian, and pancreatic cancer lines.

Each structure is given as a SMILES string. Like-named read-outs stand apart in the source and are kept apart here.

For orientation: IC50 means the concentration that gives 50% inhibition.

`O=C(/C=C/c1ccc2ccc(C(F)(F)F)cc2n1)c1ccncc1` [PFK-158, (E)-1-(pyridyn-4-yl)-3-(7-(trifluoromethyl)quinolin-2-yl)-prop-2-en-1-one]: the half-inhibitory concentration (IC50) amounted to 0.33 ± 0.1 µM (Jurkat, Table 1, read-out: IC50, toxicity of Jurkat cell line (leukemia cell line)) and 0.328 ± 0.015 µM (Table 6, Jurkat cells, read-out: IC50 Cell Growth).

Source of the values: patent US9649305B2, “PFKFB3 inhibitor and methods of use as an anti-cancer therapeutic” (ADVANCED CANCER THERAPEUTICS, LLC, priority 2012, dated 2017).
